The source of these data is paper PMC3204975, “A Photolyase-Like Protein from Agrobacterium tumefaciens with an Iron-Sulfur Cluster” (PLoS ONE, 2011).

One experiment has as its target T1, PhrA (Agrobacterium fabrum, UniProt A9CJC9).
T1 construct: full gene, N-terminal His6-tag (pQE30UA), expressed in E. coli XL1 blue, tag not reported cut
T1 sequence (A9CJC9 1-479): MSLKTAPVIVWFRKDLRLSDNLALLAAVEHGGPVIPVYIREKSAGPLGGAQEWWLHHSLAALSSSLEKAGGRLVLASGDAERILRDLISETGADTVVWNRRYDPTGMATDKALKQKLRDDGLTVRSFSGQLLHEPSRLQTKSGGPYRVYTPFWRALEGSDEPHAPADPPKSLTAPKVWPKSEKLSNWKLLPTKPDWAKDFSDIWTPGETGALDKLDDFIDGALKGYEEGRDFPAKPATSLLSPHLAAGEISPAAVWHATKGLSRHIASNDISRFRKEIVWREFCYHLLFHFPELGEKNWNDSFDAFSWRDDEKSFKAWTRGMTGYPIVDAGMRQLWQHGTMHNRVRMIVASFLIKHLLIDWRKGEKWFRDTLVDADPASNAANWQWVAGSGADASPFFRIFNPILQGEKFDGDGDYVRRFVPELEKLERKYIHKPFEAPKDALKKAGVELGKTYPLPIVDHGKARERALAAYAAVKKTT
Description: UV-vis absorption and blue-light photoreduction of co-purified cofactor. Format: binding. Conditions: co-purified from E. coli; 24 h dark, then 470 nm light with 10 mM DTT, pH 7.8, 4°C.

For a further experiment, the target named is T2, PhrB (Agrobacterium fabrum, UniProt A9CH39).
T2 construct: full gene (1524 bp, 507 residues), C-terminal 6xHis-tag (pET-21b), expressed in E. coli ER2566, tag not reported cut
T2 sequence (A9CH39 whole entry): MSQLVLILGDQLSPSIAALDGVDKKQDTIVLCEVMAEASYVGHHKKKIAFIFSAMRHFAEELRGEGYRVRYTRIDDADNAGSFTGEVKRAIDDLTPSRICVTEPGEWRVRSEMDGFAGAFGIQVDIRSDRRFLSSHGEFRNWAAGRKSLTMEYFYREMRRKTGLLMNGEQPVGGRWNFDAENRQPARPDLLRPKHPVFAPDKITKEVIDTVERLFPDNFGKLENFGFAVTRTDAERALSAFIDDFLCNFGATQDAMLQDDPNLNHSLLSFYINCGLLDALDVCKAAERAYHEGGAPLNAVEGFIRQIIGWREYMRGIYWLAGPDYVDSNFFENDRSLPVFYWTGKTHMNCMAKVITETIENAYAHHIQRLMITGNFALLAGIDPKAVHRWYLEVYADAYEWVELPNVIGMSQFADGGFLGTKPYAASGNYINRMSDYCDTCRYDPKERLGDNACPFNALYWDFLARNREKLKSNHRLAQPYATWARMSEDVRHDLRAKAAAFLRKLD
The description is as above. Type of experiment: binding. The conditions noted are these: co-purified from E. coli; 24 h dark, then 470 nm and 405 nm light with 20 mM DTT, pH 7.8, 4°C.

Structures are written as SMILES.

Turning to `Cc1cc2nc3c(=O)[nH]c(=O)nc-3n(C[C@H](O)[C@H](O)[C@H](O)COP(=O)(O)OP(=O)(O)OC[C@H]3O[C@@H](n4cnc5c(N)ncnc54)[C@H](O)[C@@H]3O)c2cc1C` [FAD], the “UV-vis absorption and blue-light photoreduction of co-purified cofactor” value is “a nearly stoichiometric ratio of both cofactors to the PhrA apoprotein was determined” on PhrA and “the FAD cofactor in PhrB is photoreduced to the fully reduced FAD state” on PhrB.
